# How the values were obtained:
# P2Y purinoceptor 12 = P2Y purinoceptor 12 (Homo sapiens, UniProt Q9H244); assay: Antagonist activity at P2Y12 in human whole blood assessed as suppression of ADP-induced decrease in PGE1-induced VASP phosphorylation measured after 10 mins by immunostaining based flow cytometric analysis; assay type: tissue-based
# [1] = Tmax in male Sprague-Dawley rat at 10 mg/kg, iv administered as single dose by LC-MS analysis; assay type: ADME, organism-based; details: in vivo
# [2] = Elimination half-life in male Sprague-Dawley rat at 10 mg/kg, iv administered as single dose by LC-MS analysis; assay type: ADME, organism-based; details: in vivo, read-out: beta t1/2 (converted)
# [3] = Cmax in male Sprague-Dawley rat at 10 mg/kg, iv administered as single dose by LC-MS analysis; assay type: ADME, organism-based; parameters: route intravenous, dose 10 mg/kg; details: in vivo
# Cytochrome P450 2A6 = biological target: T1, Cytochrome P450 2A6 (Homo sapiens, UniProt P11509); assay: Inhibition of CYP2A6 in human liver microsomes using coumarin as substrate preincubated for 5 mins followed by NADPH generating system addition and measured after 120 mins by LC-MS/MS; assay type: ADME
# T1 sequence (P11509 whole entry): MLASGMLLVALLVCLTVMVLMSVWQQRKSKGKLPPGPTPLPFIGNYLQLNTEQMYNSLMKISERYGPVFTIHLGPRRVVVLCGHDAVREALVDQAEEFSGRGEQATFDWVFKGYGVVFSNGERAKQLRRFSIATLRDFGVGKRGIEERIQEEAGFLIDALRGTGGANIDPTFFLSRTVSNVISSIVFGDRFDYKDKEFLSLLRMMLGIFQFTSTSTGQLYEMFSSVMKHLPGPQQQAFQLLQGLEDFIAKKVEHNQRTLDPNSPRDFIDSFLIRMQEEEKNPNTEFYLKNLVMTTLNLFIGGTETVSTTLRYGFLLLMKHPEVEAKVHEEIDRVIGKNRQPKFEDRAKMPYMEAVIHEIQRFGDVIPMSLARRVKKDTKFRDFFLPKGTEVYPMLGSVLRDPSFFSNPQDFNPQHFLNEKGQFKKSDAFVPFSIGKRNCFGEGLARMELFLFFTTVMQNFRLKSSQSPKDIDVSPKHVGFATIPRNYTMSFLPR
# Cytochrome P450 2D6 = Cytochrome P450 2D6 (Homo sapiens, UniProt P10635); assay: Inhibition of CYP2D6 in human liver microsomes using dextromethorphan as substrate preincubated for 5 mins followed by NADPH generating system addition and measured after 120 mins by LC-MS/MS; assay type: ADME
# [4] = Oral bioavailability in male Sprague-Dawley rat at 10 mg/kg administered as single dose by LC-MS analysis; assay type: ADME, organism-based; details: in vivo
# P2Y purinoceptor 12, sequence (Q9H244 whole entry): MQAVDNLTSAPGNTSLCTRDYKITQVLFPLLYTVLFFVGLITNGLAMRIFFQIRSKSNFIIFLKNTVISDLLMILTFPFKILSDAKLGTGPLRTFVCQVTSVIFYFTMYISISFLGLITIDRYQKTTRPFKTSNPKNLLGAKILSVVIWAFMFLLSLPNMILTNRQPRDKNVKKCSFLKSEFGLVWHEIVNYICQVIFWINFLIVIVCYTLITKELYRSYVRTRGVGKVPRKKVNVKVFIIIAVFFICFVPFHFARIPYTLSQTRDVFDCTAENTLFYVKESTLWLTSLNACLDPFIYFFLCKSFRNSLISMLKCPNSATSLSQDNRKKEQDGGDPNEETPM
# Cytochrome P450 2D6, sequence (P10635 whole entry): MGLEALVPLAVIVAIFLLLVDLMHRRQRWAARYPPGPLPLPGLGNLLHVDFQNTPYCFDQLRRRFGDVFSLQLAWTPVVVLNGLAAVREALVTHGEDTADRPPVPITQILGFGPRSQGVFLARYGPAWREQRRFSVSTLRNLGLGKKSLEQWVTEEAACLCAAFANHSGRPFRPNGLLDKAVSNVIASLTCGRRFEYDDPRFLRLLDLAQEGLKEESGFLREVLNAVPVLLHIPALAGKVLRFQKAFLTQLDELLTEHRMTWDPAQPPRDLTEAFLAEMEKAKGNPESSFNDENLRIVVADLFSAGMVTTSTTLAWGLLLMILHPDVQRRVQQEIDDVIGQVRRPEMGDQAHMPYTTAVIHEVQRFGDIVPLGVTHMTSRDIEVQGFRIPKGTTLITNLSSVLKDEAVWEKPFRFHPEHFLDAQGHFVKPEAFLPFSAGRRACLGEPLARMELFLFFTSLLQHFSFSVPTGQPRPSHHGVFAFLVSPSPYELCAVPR
Structure (SMILES),IC50 (P2Y purinoceptor 12) [µM],Tmax [1] [min],half-life [2] [h],Cmax [3] [ng/mL],IC50 (Cytochrome P450 2A6) [µM],IC50 (Cytochrome P450 2D6) [µM],bioavailability [4] [%]
Cc1nc(-c2cccc(C#N)c2)n(OCc2ccc(C#N)cc2)c1C(=O)O,149,8.4,4.89,11200,> 10,> 10,
CCOC(=O)c1c(C)nc(-c2cccc(C#N)c2)n1OCc1ccc(C#N)cc1,,,,,,,32.4

# Source: ChEMBL document CHEMBL4673353, “Switching a Xanthine Oxidase Inhibitor to a Dual-Target Antagonist of P2Y and P2Y as an Oral Antiplatelet Agent with a Wider Therapeutic Window in Rats than Ticagrelor” (J Med Chem, 2020)
